The values below come from patent publication EP4574817A1 (LoQus23 Therapeutics Limited, priority 2023, dated 2025).

By IC50 is commonly meant the midpoint of a concentration-inhibition curve. High values mean weaker potency, low ones greater potency.

The test system of one experiment is U20S-IC6 cells. As to the kind of experiment: Lo-Q platform assay (CAG repeat expansion in a clonal cell line with tetracycline-regulated exon 1 HTT ~100 CAG / nanoluc). In kind it is cell-based. Particulars: 336 h, 2-week assay with tetracycline pulsing, read-out: Minimum effective concentration (MEC). The source says: The cell line that was used in the assay below was generated as follows:
The pcDNA™4/TO vector contains two tetracycline operator 2 (TetO2) sites within the human cytomegalovirus immediate-early (CMV) promoter for tetracycline regulated expression of your gene of interest (Yao et al., 1998). The TetO2 sequences serve as binding sites for four Tet repressor molecules (comprising two Tet repressor homodimers) and confer tetracycline-responsiveness to the gene of interest. In the absence of tetracycline, expression of your gene of interest is repressed by the binding of Tet repressor homodimers to the TetO2 sequences. Addition of tetracycline to the cells de-represses the hybrid CMV/TetO2 promoter in pcDNA™4/TO and allows expression of your gene of interest. The pcDNA™6/TR regulatory plasmid is designed for use with the T-REx™ System for tetracycline-regulated expression of the gene of interest in mammalian cells. (www.lifetechnologies.com).
The expression sequence comprises exon 1 huntingtin with ~100 pure CAG repeats, a P2A self-cleaving peptide and a nanoluc sequence followed by a polyA signal. Full plasmid sequence is indicated (Seq ID NO:3). The plasmid contains sequences for ampicillin (bacterial propagation) and zeocin (mammalian cell lines) resistance.
The U-2 OS cell line (purchased from LGC standards, ATCC) is derived from a moderately differentiated sarcoma from the tibia of an adolescent person. Karyotyping has shown that although there are a lot of chromosomal abnormalities the tumour suppressor genes p53 and pRb are still fully functional in the U2OS cell line.
Routine culture of the adherent cells in non-PDL plastic ware in a humidified 37°C incubator with 5% CO2. Cells were maintained in McCoy's 5A (modified) medium with GlutaMAX supplement (Life Technologies 3660-021) and tetracycline-free FBS (Clontech 631106). Maintenance medium for the clonal cell lines expressing Tet repressor and exon 1 HTT/nanoluc constructs were additionally supplemented with zeocin to 100 ug/ml and blasticidin to 1.25 ug/ml. Cells were passaged at 70-80% confluence once or twice a week, either to a split ratio or defined seeding density using DPBS and TrypLE express enzyme (1x, no phenol red, Life technologies 12604-039) was used to dissociate the cells. Cells were frozen with Cell Banker (AMSBIO 11891) or with medium plus 10% DMSO and stored in liquid nitrogen vapour phase.
Stable, clonal cell lines (e.g. 1C6) are leveraged either identify potential druggable targets, and to assess the effectiveness of therapeutic compounds against a Huntington's disease, by way of quantifying CAG repeats expansion rates.
• Place a vial of the cell line U20S-IC6 (1-2×10^6 cells/mL), produced as described above, in a water bath at 37°C for 30 s. Once thawed, quickly transfer the cells into a 15 mL falcon tube containing 9 mL of McCoys 5A media, supplemented with 10% Tet-free FBS. • Pellet the cells by centrifugation at 300 x g for 5 m and discard the supernatant. • Resuspend the cell pellet in 10 mL fresh media and transfer to a sterile T75 culture flask. • Inspect the culture after 24 h and maintain the cells below 80% confluency, typically passaging every 3-4 days.
The Lo-Q platform has been optimised to run as a 2-week assay, following the standard processes detailed in the schematic in Figure 1A.
• Cell seeding for Lo-Q platform assays should be initiated on Mondays (am) to ensure Tetracycline pulsing can be maintained every other day. • The Friday prior to initiating any Lo-Q platform assay ensure there are sufficient cells in culture to seed the required number of assay plates. If required, passage the cells, otherwise perform a media change to McCoys 5A, 10% Tet-free FBS, 1.25 µg/mL Blasticidin®, and 100 µg/mL Zeocin®. • On the Monday morning, aspirate the media from the required number of culture flasks containing U20S-IC6 cells and wash with 2 mL PBS. • Aspirate the PBS and add 2 mL 0.25% Trypsin EDTA. […]

In a further experiment the target is T1, MutSβ (Homo sapiens, UniProt P20585+P43246).
T1 construct: purchased AMRI
T1 sequence (P43246 whole entry): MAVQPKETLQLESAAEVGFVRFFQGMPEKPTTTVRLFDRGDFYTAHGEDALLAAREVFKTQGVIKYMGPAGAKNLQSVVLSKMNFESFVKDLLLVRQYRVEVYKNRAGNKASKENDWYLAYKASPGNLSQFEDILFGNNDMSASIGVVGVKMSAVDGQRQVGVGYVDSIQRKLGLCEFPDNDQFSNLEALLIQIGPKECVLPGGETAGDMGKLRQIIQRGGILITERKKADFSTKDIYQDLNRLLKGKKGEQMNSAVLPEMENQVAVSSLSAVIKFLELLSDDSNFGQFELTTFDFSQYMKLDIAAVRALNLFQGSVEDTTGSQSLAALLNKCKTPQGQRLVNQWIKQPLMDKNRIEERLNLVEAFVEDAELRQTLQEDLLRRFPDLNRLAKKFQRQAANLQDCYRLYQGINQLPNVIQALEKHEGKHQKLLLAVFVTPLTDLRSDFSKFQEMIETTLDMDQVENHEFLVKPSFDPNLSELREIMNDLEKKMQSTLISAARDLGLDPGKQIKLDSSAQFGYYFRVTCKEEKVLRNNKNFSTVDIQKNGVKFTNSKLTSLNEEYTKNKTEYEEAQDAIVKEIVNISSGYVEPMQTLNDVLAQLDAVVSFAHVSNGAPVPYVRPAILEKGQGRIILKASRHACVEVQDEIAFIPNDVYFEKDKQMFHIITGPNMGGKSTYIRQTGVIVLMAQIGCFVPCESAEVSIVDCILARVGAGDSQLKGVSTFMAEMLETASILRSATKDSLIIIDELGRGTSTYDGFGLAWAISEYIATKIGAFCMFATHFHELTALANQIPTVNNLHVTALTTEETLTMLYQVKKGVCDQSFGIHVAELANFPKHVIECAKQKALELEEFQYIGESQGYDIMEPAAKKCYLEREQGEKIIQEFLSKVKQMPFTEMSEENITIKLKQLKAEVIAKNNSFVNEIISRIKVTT
T1 sequence (P20585 whole entry): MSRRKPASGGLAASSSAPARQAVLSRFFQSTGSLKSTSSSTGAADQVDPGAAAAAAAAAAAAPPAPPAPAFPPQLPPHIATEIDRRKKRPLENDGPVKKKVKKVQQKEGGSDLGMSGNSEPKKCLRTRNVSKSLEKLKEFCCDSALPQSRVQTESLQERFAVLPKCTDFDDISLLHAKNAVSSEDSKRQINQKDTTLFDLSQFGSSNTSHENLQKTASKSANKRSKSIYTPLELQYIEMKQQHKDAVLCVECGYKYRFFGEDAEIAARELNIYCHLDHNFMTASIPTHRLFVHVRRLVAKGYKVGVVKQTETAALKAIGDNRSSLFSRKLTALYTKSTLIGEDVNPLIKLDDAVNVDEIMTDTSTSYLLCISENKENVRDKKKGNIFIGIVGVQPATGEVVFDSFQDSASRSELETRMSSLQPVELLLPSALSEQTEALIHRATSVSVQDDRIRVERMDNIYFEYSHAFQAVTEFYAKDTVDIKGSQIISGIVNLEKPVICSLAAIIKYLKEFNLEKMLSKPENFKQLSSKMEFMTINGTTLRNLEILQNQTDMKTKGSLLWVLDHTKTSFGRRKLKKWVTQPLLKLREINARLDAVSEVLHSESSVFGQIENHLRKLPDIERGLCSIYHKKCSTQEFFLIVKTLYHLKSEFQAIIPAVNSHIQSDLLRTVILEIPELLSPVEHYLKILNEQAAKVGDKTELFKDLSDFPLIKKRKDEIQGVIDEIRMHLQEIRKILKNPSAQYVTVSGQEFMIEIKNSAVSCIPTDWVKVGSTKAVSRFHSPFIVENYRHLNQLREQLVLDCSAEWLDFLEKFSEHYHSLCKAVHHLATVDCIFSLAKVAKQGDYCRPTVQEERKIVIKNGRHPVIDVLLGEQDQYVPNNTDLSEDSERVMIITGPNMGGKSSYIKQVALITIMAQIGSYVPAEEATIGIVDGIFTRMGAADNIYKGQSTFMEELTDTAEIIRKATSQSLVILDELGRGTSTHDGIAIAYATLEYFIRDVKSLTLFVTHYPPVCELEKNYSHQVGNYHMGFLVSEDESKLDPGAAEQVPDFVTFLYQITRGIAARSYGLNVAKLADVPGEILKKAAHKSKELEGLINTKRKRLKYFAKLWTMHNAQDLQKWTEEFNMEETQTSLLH
Nature of the experiment: MutSβ ADP Glo Assay. Type of experiment: biochemical. Particulars: 20nM MutSβ, 30nM CAG DNA, 25 µM ATP, 2 hours at room temperature. As for the experimental part: Biological Example A - MutSβ Assay
• MutSβ (supplied by AMRI) stored at -70°C • ADP Glo Kinase Assay Kit (Promega: V9102) stored at -20°C • ATP (supplied within the ADP Glo Kit) stored at -20°C • 1M KCI (Sigma Aldrich: P9333) stored at 2-8°C • 1 M HEPES pH 7.5 (Gibco: M15630-080) stored at 2-8°C • 1M MgCl2 (Sigma Aldrich: M1028-100mL) stored at 2-8°C • Tween-20 (Sigma Aldrich: P1379) (10% solution) stored at 2-8°C • 500mM DTT (Sigma Aldrich: 10197777001) stored at -20°C • CAG loop DNA for MutSβ (made in house) stored at -20°C • MilliQ water stored at room temperature
• 1. Prepare the buffer fresh each day • 2. Take the enzyme from the freezer, thaw in room temperature water and centrifuge at 13,000 rpm for 10 minutes at 2-8C, then make up enzyme and ATP stocks • 3. Quality Control the multidrop head to a %CV of <2% • 4. Add 3µL of 33.34nM MutSβ and 50.01nM CAG looped DNA solution […] to each well in columns 1 and 3-23 of the plate • 5. Pre-incubate the MutSβ and buffer mix for 10 minutes with the compounds • 6. Wash the multidrop head through with MilliQ water (for at least 30 seconds) • 7. Add 3µL of MutSβ Assay buffer (without enzyme) to columns 2 and 24 for the vehicle controls • 8. Wash the multidrop head through with MilliQ water (for at least 30 seconds) • 9. Add 2µL of 62.5µM ATP to each well of the whole plate, then wash with MilliQ water (for a minimum of 30 seconds) • 10. Centrifuge plate for 1 minute at 1000 rpm • 11. Incubate for 2 hours at room temperature • 12. Add 5µL of ADP Glo reagent to each well of the whole plate and wash the multidrop head with MilliQ water (for a minimum of 30 seconds) • 13. Incubate for 40 minutes at room temperature (minimum requirement) • 14. Add 10µL of Kinase Detection Reagent to each well of the whole plate • 15. Wash the multidrop head with MilliQ water more than 1 minute and then dry • 16. Remove the head and put the cover back on for overnight storage • 17. Incubate for 30 minutes at room temperature (minimum requirement) • 18. Read on a microplate reader
Background: ADP-Glo first removes unused ATP, then detects ADP through luciferase.

`CNS(=O)(=O)OCC(=O)Nc1nc(C)c(Cc2cccc(Cl)c2)s1` [Example 19, 2-((5-(3-chlorobenzyl)-4-methylthiazol-2-yl)amino)-2-oxoethyl methylsulfamate]: the minimal effective concentration in the experiment with U20S-IC6 cells is at most 0.1 µM. Moreover, the IC50 against MutSβ fell in the range of 0.5 to 1 µM.
Turning to `CNS(=O)(=O)OCC(=O)Nc1nc(C)c(Cc2ccc(F)c(F)c2)s1` [Example 14, 2-((5-(3,4-difluorobenzyl)-4-methylthiazol-2-yl)amino)-2-oxoethyl methylsulfamate], the minimal effective concentration with U20S-IC6 cells is 0.1 to 0.5 µM. Also, the IC50 against MutSβ was 1 to 10 µM.
In the same order, the values of `CNS(=O)(=O)OCC(=O)N(C)c1nc(C)c(Cc2cccc(Cl)c2)s1` [Example 1, 2-((5-(3-chlorobenzyl)-4-methylthiazol-2-yl)(methyl)amino)-2-oxoethyl methylsulfamate] are at most 0.1 µM and at most 0.5 µM.
